Experimental data from patent US7745422B2, “Bisphosphonate compounds and methods for bone resorption diseases, cancer, bone pain, immune disorders, and infectious diseases” (The Board of Trustees of the University of Illinois, priority 2004, dated 2010).
In brackets after ≈: the same amount, converted by molar mass. Where two headings read alike, the source gives them in different places.

Tests used:
T. cruzi = test: Activity against T. cruzi; assay type: cell-based; conditions: Trypanosoma cruzi; Table 5; read-out: (8) T. cruzi IC50
Source text: (§1) We have obtained data for selected bisphosphonate compounds against parasites including Trypanosoma brucei, Trypanosoma cruzi, and Leishmania major. […] See Table 5 (in some instances, the same data depicted elsewhere herein, e.g., in Table 1, may be presented again to facilitate comparative analysis).

fetal mouse metatarsals = test: bone resorption assay: 45Ca2+ release from 17-day old fetal mouse metatarsals; assay type: cell-based; conditions: for IC50: Table 4
Method: Compounds are tested in a bone resorption assay: ^45Ca^2+ release from 17-day old fetal mouse metatarsals (ref. 37).

Vγ2Vδ2 T cells [1] = test: gammadelta T cell stimulation (TNF-α release assay); assay type: cell-based, human
Source text: (§2) We then investigated the activity of each compound in inhibiting the FPPS from L. major, in Dictyostelium discoideum growth inhibition and in γδ T cell activation. We used the FPPS from L. major since this enzyme is the putative bisphosphonate target in several trypanosomatid species.

[2] = system: human nasopharyngeal carcinoma cells; test: Toxicity testing in human nasopharyngeal carcinoma cells; assay type: cell-based; conditions: for IC50: read-out: (5) Toxicity IC50
Method: We have obtained data for selected bisphosphonate compounds in the contexts of D. discoideum assays, human FPPS assays, gammadelta T cell stimulation assays, and bone resorption assays. […] Some toxicity testing was also performed. See Table 4 (in some instances, the same data depicted elsewhere herein, e.g., in Table 1, may be presented again to facilitate comparative analysis).

human FPPS = biological target: T1, human FPPS (Homo sapiens, UniProt P14324); test: human FPPS assay; assay type: biochemical
T1 sequence (P14324 1-419): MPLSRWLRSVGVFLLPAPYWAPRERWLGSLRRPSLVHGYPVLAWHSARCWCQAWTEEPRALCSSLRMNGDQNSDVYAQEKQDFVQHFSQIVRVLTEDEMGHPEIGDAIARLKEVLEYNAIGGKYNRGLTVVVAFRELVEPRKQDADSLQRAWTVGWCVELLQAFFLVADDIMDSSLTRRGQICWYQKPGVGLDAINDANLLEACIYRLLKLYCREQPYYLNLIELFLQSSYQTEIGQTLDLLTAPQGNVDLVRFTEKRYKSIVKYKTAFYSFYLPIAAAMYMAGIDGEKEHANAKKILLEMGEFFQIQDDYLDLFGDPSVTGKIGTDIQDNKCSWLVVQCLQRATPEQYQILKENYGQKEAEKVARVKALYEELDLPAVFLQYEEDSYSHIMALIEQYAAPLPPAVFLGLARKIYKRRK

Dictyostelium discoideum = test: D. discoideum cell growth inhibition; assay type: cell-based
Source text: as §2

L. major FPPS [3] = biological target: T2, L. major FPPS (Leishmania major, UniProt Q4QBL1); test: biochemical; assay type: biochemical
T2 sequence (Q4QBL1 1-362): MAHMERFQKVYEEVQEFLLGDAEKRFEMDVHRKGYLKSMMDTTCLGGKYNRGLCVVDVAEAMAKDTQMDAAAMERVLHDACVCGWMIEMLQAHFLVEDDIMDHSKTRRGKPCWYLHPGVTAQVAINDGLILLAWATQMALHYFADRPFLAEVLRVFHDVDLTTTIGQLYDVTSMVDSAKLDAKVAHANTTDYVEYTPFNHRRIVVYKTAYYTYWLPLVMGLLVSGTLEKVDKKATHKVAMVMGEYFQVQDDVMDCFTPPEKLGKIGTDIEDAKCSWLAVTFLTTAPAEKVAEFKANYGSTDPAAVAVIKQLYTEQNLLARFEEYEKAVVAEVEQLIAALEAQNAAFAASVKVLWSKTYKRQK
Source text: as §2

[4] = biological target: T. brucei soluble vacuolar pyrophosphatase; test: T. brucei soluble vacuolar pyrophosphatase inhibition; assay type: biochemical, Trypanosoma brucei; conditions: Table 5; read-out: (9) T. brucei soluble vacuolar pyrophosphatase IC50
Source text: as §1

parasite cell growth = test: Parasite cell growth inhibition; assay type: cell-based
Source text: We explored the hypothesis of whether analogs of pyrophosphate could block pyrophosphatase enzymes and/or inhibit cellular growth or function. We used certain bisphosphonate compounds that are currently applied in bone resorption therapy. The compounds included pamidronate (Aredia®, Novartis), alendronate (Fosamax®, Merck), and risedronate (Actonel®, Procter & Gamble). […] Without wishing to be bound by a particular theory, the compounds appeared to act as inhibitors of isoprenoid biosynthesis (FIG. 6).

Vγ2Vδ2 T cells [5] = conditions: TNF-α release, footnote b: data from Ref. 30; read-out: gammadelta T cell stimulation, EC50; cited from earlier work
pyrophosphatase enzymes = test: Pyrophosphatase inhibition; assay type: biochemical
Source text: We explored the hypothesis of whether analogs of pyrophosphate could block pyrophosphatase enzymes and/or inhibit cellular growth or function. We used certain bisphosphonate compounds that are currently applied in bone resorption therapy.

L. major FPPS [6] = biological target: T2, L. major FPPS; conditions: read-out: L. major FPPS Ki; Table 1, footnote a: data from Ref. 17; cited from earlier work
cutaneous leishmaniasis = test: Treatment of cutaneous leishmaniasis in mice; assay type: in vivo
Source text: The average lesion size in treated mice was reduced during a time period of several weeks and in a dose-dependent manner relative to […] mice.

[7] = Homo sapiens, T-cell, read-out: (3) gammadelta T cell stimulation EC50
[8] = Homo sapiens, T-cell, read-out: gammadelta T cell stimulation EC50
[9] = Homo sapiens, T-cell, read-out: gammadelta T cell stimulation, EC50
[10] = Dictyostelium discoideum, read-out: (1) D. discoideum IC50
[11] = Dictyostelium discoideum, read-out: D. discoideum IC50
[12] = Table 1 and text, read-out: L. major FPPS Ki
[13] = TNF-α release, Table 1 and text, read-out: gammadelta T cell stimulation, EC50
[14] = Table 3, additional testing, read-out: gammadelta T cell stimulation EC50
[15] = Table 4, read-out: (1) D. discoideum IC50
[16] = cell growth inhibition, Table 1 and text, read-out: D. discoideum IC50
[17] = Table 5, read-out: (7) L. major FPPS Ki
[18] = Table 4, read-out: (3) gammadelta T cell stimulation EC50
[19] = Table 4, read-out: (2) human FPPS IC50

## O=P([O-])(O)C(O)(C[n+]1ccccc1)P(=O)(O)O (stereo not drawn) [Compound 278]
T. cruzi
  IC50: 3.07 µg/mL (≈ 10.8 µM)
Fetal mouse metatarsals; Mus musculus
  IC50: 0.67 µM
Vγ2Vδ2 T cells [1]; [7]
  EC50: 5.1 µM
Vγ2Vδ2 T cells [1]; [8]
  EC50: 4.8 µM
Vγ2Vδ2 T cells [1]; [9]
  EC50: 5.1 µM
[2]
  IC50: 300 µg/mL (≈ 1060 µM)
Human FPPS
  IC50: 1.6 µM
Dictyostelium discoideum; [10]
  IC50: 2.6 µM
Dictyostelium discoideum; [11]
  IC50: 2.1 µM

## Cc1ccc[n+](CC(O)(P(=O)([O-])O)P(=O)(O)O)c1 (stereo not drawn) [Compound 297]
Fetal mouse metatarsals
  IC50: 0.22 µM
L. major FPPS [3]; [12]
  Ki: 0.038 µM
Vγ2Vδ2 T cells [1]; [13]
  EC50: 4.6 µM
Vγ2Vδ2 T cells [1]; [14]
  EC50: 4.9 µM
[2]
  (5) Toxicity IC50: 5.3 µg/mL
Dictyostelium discoideum; [15]
  IC50: 2.8 µM
Dictyostelium discoideum; [16]
  IC50: 1.5 µM

## O=P([O-])(O)C(O)(C[n+]1cccc(-c2ccccc2)c1)P(=O)(O)O (stereo not drawn) [Compound 300]
Fetal mouse metatarsals; Mus musculus
  IC50: 0.41 µM
Vγ2Vδ2 T cells [1]; [7]
  EC50: 3.7 µM
Vγ2Vδ2 T cells [1]; [8]
  EC50: 2.1 µM
Vγ2Vδ2 T cells [1]; [9]
  EC50: 3.7 µM
[4]
  IC50: 35 µM
[2]
  IC50: 5.4 µg/mL (≈ 15 µM)
Human FPPS
  IC50: 1.7 µM
Dictyostelium discoideum; [10]
  IC50: 2.8 µM
Dictyostelium discoideum; [11]
  IC50: 2.8 µM

## O=P([O-])(O)C(O)(C[n+]1cccc(Cc2ccccc2)c1)P(=O)(O)O (stereo not drawn) [Compound 335]
L. major FPPS [3]; [12]
  Ki: 0.16 µM
L. major FPPS [3]; [17]
  Ki: 0.16 µM
Vγ2Vδ2 T cells [1]; TNF-α release
  activity in gammadelta T cell stimulation: poor activity
Vγ2Vδ2 T cells [1]; [13]
  EC50: 430 µM
Vγ2Vδ2 T cells [1]; [14]
  EC50: 63.4 µM
Vγ2Vδ2 T cells [1]; [18]
  EC50: 430 µM
[4]
  IC50: 70 µM
Dictyostelium discoideum; [15]
  IC50: 11 µM
Dictyostelium discoideum; [16]
  IC50: 8.5 µM

## Cc1cccc(Cc2ccc[n+](CC(O)(P(=O)([O-])O)P(=O)(O)O)c2)c1 (stereo not drawn) [Compound 344]
L. major FPPS [3]; [12]
  Ki: 0.07 µM
L. major FPPS [3]; [17]
  Ki: 0.07 µM
Vγ2Vδ2 T cells [1]; TNF-α release
  activity in gammadelta T cell stimulation: poor activity
Vγ2Vδ2 T cells [1]; [13]
  EC50: 140 µM
Vγ2Vδ2 T cells [1]; [18]
  EC50: 140 µM
[4]
  IC50: 78 µM
Human FPPS; [19]
  IC50: 17 µM
Dictyostelium discoideum; [15]
  IC50: 8.5 µM
Dictyostelium discoideum; [16]
  IC50: 9.9 µM

## O=P([O-])(O)C(O)(C[n+]1cccc(-c2ccc(O)cc2)c1)P(=O)(O)O (stereo not drawn) [Compound 359]
L. major FPPS [3]; [12]
  Ki: 0.075 µM
Vγ2Vδ2 T cells [1]; [13]
  EC50: 24 µM
Vγ2Vδ2 T cells [1]; [18]
  EC50: 24 µM
Dictyostelium discoideum; [15]
  IC50: 2.9 µM
Dictyostelium discoideum; [16]
  IC50: 2.9 µM

## CCCCc1ccc[n+](CC(O)(P(=O)([O-])O)P(=O)(O)O)c1 (stereo not drawn) [Compound 445]
L. major FPPS [3]; [12]
  Ki: 0.02 µM
Vγ2Vδ2 T cells [1]; [13]
  EC50: 5.2 µM
Vγ2Vδ2 T cells [1]; [14]
  EC50: 2.5 µM
Vγ2Vδ2 T cells [1]; [18]
  EC50: 5.2 µM
Dictyostelium discoideum; [15]
  IC50: 3 µM
Dictyostelium discoideum; [16]
  IC50: 2.9 µM

## COc1ccc[n+](CC(O)(P(=O)([O-])O)P(=O)(O)O)c1 (stereo not drawn) [Compound 446]
Fetal mouse metatarsals
  IC50: 0.37 µM
L. major FPPS [3]; [12]
  Ki: 0.03 µM
Vγ2Vδ2 T cells [1]; [13]
  EC50: 4.6 µM
Dictyostelium discoideum; [15]
  IC50: 6 µM
Dictyostelium discoideum; [16]
  IC50: 6 µM

## O=P([O-])(O)C(O)(C[n+]1cccc(F)c1)P(=O)(O)O (stereo not drawn) [Compound 461]
Fetal mouse metatarsals
  potency in bone resorption: very potent
Fetal mouse metatarsals; Mus musculus
  IC50: 0.075 µM
L. major FPPS [3]; [17]
  Ki: 0.05 µM
Vγ2Vδ2 T cells [1]; [7]
  EC50: 2.7 µM
Vγ2Vδ2 T cells [1]; [8]
  EC50: 2.7 µM
Dictyostelium discoideum; [10]
  IC50: 3.7 µM

## O=P([O-])(O)C(C[n+]1cccc(I)c1)P(=O)(O)O (stereo not drawn) [Compound 542]
Vγ2Vδ2 T cells [1]; [18]
  EC50: 12 µM
Human FPPS; [19]
  IC50: 1.2 µM
Dictyostelium discoideum; [15]
  IC50: 1.7 µM

## CCOc1cccc(-c2ccc[n+](CC(P(=O)([O-])O)P(=O)(O)O)c2)c1 (stereo not drawn) [Compound 588]
Vγ2Vδ2 T cells [1]; [18]
  EC50: 120 µM
Human FPPS; [19]
  IC50: 11 µM
Dictyostelium discoideum; [15]
  IC50: 3.3 µM

## O=P([O-])(O)C(O)(C[n+]1cccc(O)c1)P(=O)(O)O (stereo not drawn) [Compound 595]
Vγ2Vδ2 T cells [1]; [18]
  EC50: 210 µM
Human FPPS; [19]
  IC50: 2.7 µM
Dictyostelium discoideum; [15]
  IC50: 49 µM

## NCCCC(O)(P(=O)(O)O)P(=O)(O)O [alendronate]
Parasite cell growth
  parasite cell growth inhibition: did inhibit
Vγ2Vδ2 T cells [5]
  EC50: 52 µM
Pyrophosphatase enzymes
  inhibition of pyrophosphatases: did not appear necessarily to inhibit

## O=P(O)(O)C(NC1CCCCCC1)P(=O)(O)O [incadronate]
L. major FPPS [6]
  Ki: 0.023 µM
Vγ2Vδ2 T cells [5]
  EC50: 15 µM
Dictyostelium discoideum; [16]
  IC50: 1.6 µM

## NCCC(O)(P(=O)(O)O)P(=O)(O)O [pamidronate]
Parasite cell growth
  parasite cell growth inhibition: did inhibit
Cutaneous leishmaniasis; mice
  treating cutaneous leishmaniasis: effective
Cutaneous leishmaniasis; treated mice, several weeks, dose-dependent
  average lesion size: reduced
Pyrophosphatase enzymes
  inhibition of pyrophosphatases: did not appear necessarily to inhibit

## O=P(O)(O)C(O)(Cc1cccnc1)P(=O)(O)O [risedronate]
Parasite cell growth
  parasite cell growth inhibition: did inhibit
Vγ2Vδ2 T cells [5]
  EC50: 6.2 µM
Pyrophosphatase enzymes
  inhibition of pyrophosphatases: did not appear necessarily to inhibit
